Data reported in patent publication US6689813B2 (Biostatin Gyogyszerkutato-Fejleszto kft., priority 1998, dated 2004).
Where no end group is shown, it is not given here. [ ]: non-standard residue; d: D form.

Key:
Wistar rats [1] = assay: 1% mustard oil-induced neurogenic inflammation (Evans blue plasma extravasation, foot skin); assay type: in vivo, rat
Description: Thirty minutes after acute bilateral denervation of the lower limbs (transsection of the saphenous and sciatic nerves), 50 mg/kg of Evans blue dye was administered to the tail vein of nembutal-anaesthetized (pentobarbital, 40 mg/kg i.p.) Wistar rats (150-220 g body weight; 5 to 7 animals in each group). […] The mustard oil induces a so-called neurogenic inflammation by the selective stimulation of the peripheral endings of CSPAN's and by releasing the mediators being present therein (chiefly tachykinins and CGRP); this neurogenic inflammation appears as a vasodilatation in the area of arterioles and in the form of a plasma extravasation at the venular side. Since the dye Evans blue is bound to serum albumin in the vascular bed, its precipitation and accumulation in the upper skin surface of foot are proportional to the extent of plasma extravasation. Thus, the quantitative determination of intensity of the inflammation becomes possible. After the painting with mustard oil, the animals were bled, the foot dorsum skins were cut out and their weights were determined. The amount of dye extracted during 72 hours of incubation in formamide was determined at 620 nm on a spectrophotometer (Spectromon 195). The amount (expressed as μg) of the extravasated Evans blue related to one g of wet tissue was calculated by means of the following formula:
Evans blue (μg/g)=E×V×k/m
E is the light absorption of the solution, V means the volume (ml) of the solution, m is the weight […] of the skin cut out from the foot dorsum skin; and k is a constant determined on the basis of a dilution series, which is characteristic of the dye solution.

rats = assay: Bradykinin-induced non-neurogenic inflammation (Evans blue extravasation) after chronic denervation; assay type: in vivo, rat
Description: After chronic denervation (see 1.2.1.), each group of 5 rats received various doses (1, 2.5, 5, 10 or 20 μg, respectively, i.v.) of TT-232 and simultaneously Evans blue (50 mg/kg i.v.). Ten minutes later, bradykinin was injected underneath the plantar skin of the lower limbs of the rats. After 15 minutes the animals were bled and the amount of the extravasated Evans blue (expressed as […] related to the wet tissue) was determined as.described above (1.1.).

unanaesthetized animals = assay: Mechanical nociceptive threshold, Randall-Selitto test after carrageenin; assay type: in vivo; conditions: 30 minutes after carrageenin
Description: The mechanical nociceptive threshold was investigated by using the Randall-Selitto test (Ugo Basil equipment) on unanaesthetized animals. Before the beginning of the experiment, the animals were tested several times to provide their adaptation to the experimental conditions. The animals received TT-232 in various concentrations (1.25, 2.5, 5, 10 μg i.v.) and after 15 minutes, carrageenin (0.1 ml of 1% solution) was injected into the plantar skin of the lower limbs of the animals.

Wistar rats [2] = assay: 0.5% dextran-induced non-neurogenic inflammation (foot swelling, plethysmometer) after chronic denervation; assay type: in vivo, rat
Description: This test is based on the fact that a non-neurogenic, so-called clearly chemical inflammation can be induced by chemical excitation (e.g. by dextran, carrageenin, formalin) on a chronically denervated body area at least 5 days following the transsection of the nerve. These chemical agents release inflammation-inducing substances (histamine, bradykinin, PAF, prostaglandins and leucotrienes) from immunocytes, chiefly from mast cells.
Dextran solution (0.1 ml, 0.5%) is administered into both feet, underneath the plantar skin of Wistar rats (5 to 7 animals in each group) anaesthetized by nembutal (40 mg/kg i.v.) 5 days after bilateral denervation (transsection of the saphenous and sciatic nerves) of the lower limbs. The pretreated animals received somatostatin (SS), ocreotide or TT-232 (10 μg/kg i.p.) 10 minutes earlier. Before the administration of dextran (0 minute value), then after 10, 20 and 30 minutes, respectively, the swelling of the feet was measured by using a plethysmometer (Ugo Basil). Dextran elicits the so-called clearly chemical inflammation in the feet deprived of nerve supply (innervation) through the transmitters released from the mast cells.
A dose/effect ratio was determined for each substance.

[3] = system: release of sensory neuropeptides from the trachea of rats; assay: In vitro release of sensory neuropeptides (SP, CGRP, SOM) from the trachea of rats, RIA; set-up: species or system rat
Description: After bleeding out, the tracheas of two rats each were removed, placed into an organ bath (1.8 ml) and Krebs solution saturated with oxygen (95% of oxygen and 5% of carbon dioxide) was bubbled through it at 37° C. for 60 minutes (with a rate of 1 ml/min). After stopping the flow, the bath solution was changed 3 times (pre-stimulated—stimulated—post-stimulated) for 8 minutes. The release of sensory neuropeptides from the tissue samples was induced by electric (40 V, 0.1 ms, 10 Hz, 120 s) and chemical (10^−7 M of capsaicin) stimulation, in the presence or absence of TT-232 (200 nM, 500 nM). The fractions were collected in ice-cold tubes; the wet weights of tracheas were measured. The concentrations of substance P (SP), calcitonin gene-related peptide (CGRP) and somatostatin (SOM) were determined by using a specific radioimmunoassay (RIA) developed in our laboratory and expressed as the amount of peptide released from one g of tissue. The limits of measurements were: 2 fmol/tube for SP; 1 fmol/tube for CGRP; and 2 fmol/tube for SOM [Németh, J.: Acta Physiol. Hung. 84, 313-315 (1996); Helyes, Zs.: Br. J. Pharmacol. 121, 613-615 (1997)].

[4] = capsaicin stimulation, 200 nM TT-232
[5] = capsaicin stimulation, 500 nM TT-232
[6] = electrical stimulation, 500 nm TT-232

**Q.** What does the source list for “D-Phe-Cys-Tyr-D-Trp-Lys-Cys-Thr-NH2 ([dF]CY[dW]KCT-NH2; cysteine pairing not given here) [TT-232]”?
**A.** Decrease % (Evans blue extravasation vs control) (Wistar rats [1]; 20 μg/kg i.p., 1% mustard oil): 63.616%; Evans blue extravasation (Wistar rats [1]; 20 μg/kg i.p., 1% mustard oil on feet, control 169.525): 61.68 µg/g; inhibition of mustard oil-induced neurogenic inflammation (in words) (Wistar rats [1]; 20 μg/kg, 20 minutes after i.p. administration): significantly inhibited; equipotent dose ratio vs somatostatin (times lower dose) (Wistar rats [1]; dose/effect relation, FIG. 2): ~8 times; highest antiinflammatory effect relative to highest effect of somatostatin (Wistar rats [1]; dose/effect relation, FIG. 2): double; inhibition of inflammation (Wistar rats [1]; intravenous dose of 2.5 μg/kg, 2 hours after administration (FIG. 2.a)): 35%; Evans blue extravasation (rats; TT-232 1 μg/kg i.v., control (buffer) 127.35 ± 7.11): 98.21 ± 7.44 µg/kg; Evans blue extravasation (rats; TT-232 2.5 μg/kg i.v.): 85.02 ± 7.33 µg/kg; Evans blue extravasation (rats; TT-232 5 μg/kg i.v.): 81.95 ± 7.64 µg/kg; Evans blue extravasation (rats; TT-232 10 μg/kg i.v.): 86.31 ± 8.74 µg/kg; Evans blue extravasation (rats; TT-232 20 μg/kg i.v.): 77.4 ± 4.59 µg/kg; increase in the nociceptive threshold (analgetic effect) (unanaesthetized animals; 1.25 μg i.v.): 30%; increase in the nociceptive threshold (analgetic effect) (unanaesthetized animals; 2.5 μg i.v.): 37%; increase in the nociceptive threshold (analgetic effect) (unanaesthetized animals; 5 μg i.v.): 50%; increase in the nociceptive threshold (analgetic effect) (unanaesthetized animals; 10 μg i.v.): 60%; prevention of dextran-induced non-neurogenic inflammation (in words) (Wistar rats [2]; 10 μg/kg, even 40 minutes following the pretreatment): significantly prevented; foot swelling % (Wistar rats [2]; Table 2.a, 0.5 μg/kg, 10 minutes): 27.63 ± 3.5%; foot swelling % (Wistar rats [2]; Table 2.a, 0.5 μg/kg, 20 minutes): 39.94 ± 3.07%; foot swelling % (Wistar rats [2]; Table 2.a, 0.5 μg/kg, 30 minutes): 41.33 ± 5.95%; foot swelling % (Wistar rats [2]; Table 2.a, 1.0 μg/kg, 10 minutes): 20.51 ± 2.92%; foot swelling % (Wistar rats [2]; Table 2.a, 1.0 μg/kg, 20 minutes): 38.07 ± 3.12%; foot swelling % (Wistar rats [2]; Table 2.a, 1.0 μg/kg, 30 minutes): 44.32 ± 3.18%; foot swelling % (Wistar rats [2]; Table 2.a, 2.5 μg/kg, 10 minutes): 20.54 ± 5.16%; foot swelling % (Wistar rats [2]; Table 2.a, 2.5 μg/kg, 20 minutes): 33.02 ± 4.46%; foot swelling % (Wistar rats [2]; Table 2.a, 2.5 μg/kg, 30 minutes): 39.59 ± 4.76%; foot swelling % (Wistar rats [2]; Table 2.a, 5.0 μg/kg, 10 minutes): 17.29 ± 3.13%; foot swelling % (Wistar rats [2]; Table 2.a, 5.0 μg/kg, 20 minutes): 27.81 ± 2.39%; foot swelling % (Wistar rats [2]; Table 2.a, 5.0 μg/kg, 30 minutes): 35.95 ± 2.97%; foot swelling % (Wistar rats [2]; Table 2.a, 10 μg/kg, 10 minutes): 17.60 ± 2.05%; foot swelling % (Wistar rats [2]; Table 2.a, 10 μg/kg, 20 minutes): 27.59 ± 2.5%; foot swelling % (Wistar rats [2]; Table 2.a, 10 μg/kg, 30 minutes): 36.40 ± 1.71%; foot swelling % (Wistar rats [2]; Table 2.a, 20 μg/kg, 10 minutes): 19.56 ± 1.71%; foot swelling % (Wistar rats [2]; Table 2.a, 20 μg/kg, 20 minutes): 29.73 ± 1.7%; foot swelling % (Wistar rats [2]; Table 2.a, 20 μg/kg, 30 minutes): 37.67 ± 2.33%; prevention of foot-swelling compared with diclofenac and meloxicam (in words) (Wistar rats [2]; Table 2.a, TT-232 concentration a thousandth part of the others): more effectively; foot swelling % (Wistar rats [2]; Table 2, 10 μg/kg i.p. 10 min before dextran, 10 minutes, control 32.97): 24.4%; foot swelling % (Wistar rats [2]; Table 2, 10 μg/kg i.p. 10 min before dextran, 20 minutes, control 49.695): 34.39%; foot swelling % (Wistar rats [2]; Table 2, 10 μg/kg i.p. 10 min before dextran, 30 minutes, control 56.68): 29.43%; decrease of capsaicin-induced SOM release [3, 4]: 48%; decrease of capsaicin-induced SP release [3, 4]: 44%; inhibition of capsaicin-induced CGRP release [3, 5]: 27%; inhibition of capsaicin-induced SOM release [3, 5]: 74%; inhibition of capsaicin-induced SP release [3, 5]: 79%; inhibition of CGRP release [3, 6]: 48%; inhibition of SOM release [3, 6]: 42%; inhibition of SP release [3, 6]: 36%; amount of SOM released ([3]; electrical stimulation, 500 nm TT-232, without TT-232 0.51 fmol/mg): 0.39 fmol/mg; amount of CGRP released ([3]; electrical stimulation, 500 nm TT-232, without TT-232 0.69 fmol/mg): 0.36 fmol/mg; amount of SP released ([3]; electrical stimulation, 500 nm TT-232, without TT-232 6 fmol/mg): 3.8 fmol/mg; basal, non-stimulated release of the neuropeptides (in words) ([3]; no stimulation): not affected
